Measurements: the supplement of paper PMC6411743

compound: Nc1ncnc2c1ncn2[C@@H]1O[C@H](COP(=O)(O)OP(=O)(O)OP(=O)(O)O)[C@@H](O)[C@H]1O [adenosine triphosphate]; assay: pEC50 of ATP-induced change in protein thermal stability (2D-TPP)
Procedure, shortened: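 pEC50 was obtained by fitting dose-response curves for each replicate over pairs of adjacent temperatures, and hits were assigned using permutation-based false discovery rate control. The input came from Jurkat crude lysate treated with five concentrations including vehicle (10 min, room temperature), heated at 12 temperatures from 42 to 63.9 °C for 3 min, then given NP40 and benzonase (60 min, 4 °C). After ultracentrifugation, soluble protein was quantified by TMT LC-MS/MS as median-normalised fold changes versus vehicle per temperature, across three independent experiments.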
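Further: lysate dosed with Na-ATP at 0 0.005 0.05 0.5 and 2 mM.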

UniProt P54920, sequence (P54920 whole entry): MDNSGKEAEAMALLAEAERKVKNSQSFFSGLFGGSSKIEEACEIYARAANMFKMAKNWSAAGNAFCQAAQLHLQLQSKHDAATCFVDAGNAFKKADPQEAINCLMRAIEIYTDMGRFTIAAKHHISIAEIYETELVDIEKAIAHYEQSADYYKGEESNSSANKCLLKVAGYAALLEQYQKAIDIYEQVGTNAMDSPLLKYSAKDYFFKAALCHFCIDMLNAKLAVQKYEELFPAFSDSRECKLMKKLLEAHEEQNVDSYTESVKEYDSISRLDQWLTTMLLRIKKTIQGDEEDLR
UniProt Q12905, sequence (Q12905 whole entry): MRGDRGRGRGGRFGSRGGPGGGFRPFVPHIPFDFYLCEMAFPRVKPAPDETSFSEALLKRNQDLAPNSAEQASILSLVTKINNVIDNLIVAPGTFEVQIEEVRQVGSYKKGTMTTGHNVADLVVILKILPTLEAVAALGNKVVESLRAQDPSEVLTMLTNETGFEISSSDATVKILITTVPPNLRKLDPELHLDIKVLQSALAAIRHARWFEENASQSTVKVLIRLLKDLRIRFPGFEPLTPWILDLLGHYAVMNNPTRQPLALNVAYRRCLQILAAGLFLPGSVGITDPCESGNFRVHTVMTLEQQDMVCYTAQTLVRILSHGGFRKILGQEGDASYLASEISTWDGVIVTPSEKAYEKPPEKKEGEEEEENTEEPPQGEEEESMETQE
UniProt A5YKK6, sequence (A5YKK6 whole entry): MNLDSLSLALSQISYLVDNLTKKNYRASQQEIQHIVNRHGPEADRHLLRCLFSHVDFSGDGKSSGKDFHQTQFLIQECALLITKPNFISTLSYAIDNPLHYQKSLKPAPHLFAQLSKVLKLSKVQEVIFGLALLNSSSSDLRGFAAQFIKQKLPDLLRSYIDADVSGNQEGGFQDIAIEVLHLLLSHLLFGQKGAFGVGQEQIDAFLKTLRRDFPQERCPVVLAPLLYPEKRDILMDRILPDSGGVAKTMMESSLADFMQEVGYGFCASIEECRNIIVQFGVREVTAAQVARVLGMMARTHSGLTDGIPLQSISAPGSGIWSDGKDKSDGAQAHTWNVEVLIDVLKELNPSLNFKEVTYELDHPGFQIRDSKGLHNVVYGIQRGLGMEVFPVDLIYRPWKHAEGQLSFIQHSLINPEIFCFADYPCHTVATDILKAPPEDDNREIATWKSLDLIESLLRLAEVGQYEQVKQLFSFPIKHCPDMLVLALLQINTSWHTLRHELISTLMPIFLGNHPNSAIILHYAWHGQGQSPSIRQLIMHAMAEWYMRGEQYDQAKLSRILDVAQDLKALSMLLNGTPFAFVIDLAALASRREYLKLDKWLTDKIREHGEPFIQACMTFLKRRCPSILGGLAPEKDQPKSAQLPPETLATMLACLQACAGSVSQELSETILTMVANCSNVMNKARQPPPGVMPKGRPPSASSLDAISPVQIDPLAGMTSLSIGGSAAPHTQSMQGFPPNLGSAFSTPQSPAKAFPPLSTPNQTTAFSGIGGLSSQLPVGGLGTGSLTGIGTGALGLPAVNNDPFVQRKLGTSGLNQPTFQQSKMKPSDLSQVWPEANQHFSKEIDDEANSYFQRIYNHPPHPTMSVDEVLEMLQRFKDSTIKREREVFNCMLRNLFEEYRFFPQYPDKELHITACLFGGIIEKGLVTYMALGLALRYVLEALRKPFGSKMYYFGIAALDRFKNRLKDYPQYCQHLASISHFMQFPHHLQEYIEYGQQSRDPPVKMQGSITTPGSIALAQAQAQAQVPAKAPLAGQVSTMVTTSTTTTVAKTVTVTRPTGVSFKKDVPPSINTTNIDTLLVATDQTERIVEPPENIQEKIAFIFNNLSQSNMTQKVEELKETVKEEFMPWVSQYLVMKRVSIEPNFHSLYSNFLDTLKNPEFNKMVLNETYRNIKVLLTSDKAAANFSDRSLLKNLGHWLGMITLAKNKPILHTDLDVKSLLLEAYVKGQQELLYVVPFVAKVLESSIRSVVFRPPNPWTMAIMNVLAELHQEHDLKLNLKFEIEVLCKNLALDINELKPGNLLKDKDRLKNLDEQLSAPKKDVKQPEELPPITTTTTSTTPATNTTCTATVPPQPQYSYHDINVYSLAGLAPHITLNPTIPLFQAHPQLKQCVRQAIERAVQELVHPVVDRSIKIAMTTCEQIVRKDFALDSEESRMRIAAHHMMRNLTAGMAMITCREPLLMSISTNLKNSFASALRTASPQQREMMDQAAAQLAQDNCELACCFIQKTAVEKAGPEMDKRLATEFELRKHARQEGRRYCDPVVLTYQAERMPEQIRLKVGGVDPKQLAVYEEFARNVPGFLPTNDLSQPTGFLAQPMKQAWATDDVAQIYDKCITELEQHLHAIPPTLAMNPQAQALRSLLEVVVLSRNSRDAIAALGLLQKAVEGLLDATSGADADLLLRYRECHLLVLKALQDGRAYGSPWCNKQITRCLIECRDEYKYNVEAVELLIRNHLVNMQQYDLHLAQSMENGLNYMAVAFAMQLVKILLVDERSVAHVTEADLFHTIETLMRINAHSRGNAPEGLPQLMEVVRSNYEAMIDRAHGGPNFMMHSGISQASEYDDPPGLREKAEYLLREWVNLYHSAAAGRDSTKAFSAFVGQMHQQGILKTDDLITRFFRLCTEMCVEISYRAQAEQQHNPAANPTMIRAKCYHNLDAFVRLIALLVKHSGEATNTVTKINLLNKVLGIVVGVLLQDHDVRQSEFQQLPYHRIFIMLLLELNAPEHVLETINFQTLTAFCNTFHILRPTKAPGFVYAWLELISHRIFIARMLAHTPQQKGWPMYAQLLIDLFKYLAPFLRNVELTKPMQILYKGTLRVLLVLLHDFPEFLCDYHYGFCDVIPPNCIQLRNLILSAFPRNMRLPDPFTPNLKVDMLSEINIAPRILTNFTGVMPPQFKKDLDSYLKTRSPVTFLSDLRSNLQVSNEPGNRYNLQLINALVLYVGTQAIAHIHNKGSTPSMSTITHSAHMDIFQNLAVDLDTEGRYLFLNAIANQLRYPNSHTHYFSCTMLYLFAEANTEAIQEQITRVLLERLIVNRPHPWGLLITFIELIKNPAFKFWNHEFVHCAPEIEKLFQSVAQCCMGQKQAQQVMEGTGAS
UniProt Q9NQW7, sequence (Q9NQW7 whole entry): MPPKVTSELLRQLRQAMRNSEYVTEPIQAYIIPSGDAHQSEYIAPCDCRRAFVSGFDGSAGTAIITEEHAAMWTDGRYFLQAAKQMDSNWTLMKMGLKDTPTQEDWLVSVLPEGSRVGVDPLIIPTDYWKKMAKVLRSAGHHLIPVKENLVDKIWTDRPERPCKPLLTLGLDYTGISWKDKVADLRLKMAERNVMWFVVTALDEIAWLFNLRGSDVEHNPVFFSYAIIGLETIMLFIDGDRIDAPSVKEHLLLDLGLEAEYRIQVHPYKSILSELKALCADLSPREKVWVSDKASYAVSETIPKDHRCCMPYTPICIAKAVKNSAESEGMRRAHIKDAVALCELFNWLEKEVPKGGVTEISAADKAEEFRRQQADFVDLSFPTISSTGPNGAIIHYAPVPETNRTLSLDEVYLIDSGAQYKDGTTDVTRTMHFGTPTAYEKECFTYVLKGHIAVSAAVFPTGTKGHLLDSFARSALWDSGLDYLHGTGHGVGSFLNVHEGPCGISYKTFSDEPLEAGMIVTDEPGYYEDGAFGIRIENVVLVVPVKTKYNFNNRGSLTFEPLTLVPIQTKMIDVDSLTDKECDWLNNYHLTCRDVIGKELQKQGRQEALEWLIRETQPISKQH
UniProt Q9HAV7, sequence (Q9HAV7 whole entry): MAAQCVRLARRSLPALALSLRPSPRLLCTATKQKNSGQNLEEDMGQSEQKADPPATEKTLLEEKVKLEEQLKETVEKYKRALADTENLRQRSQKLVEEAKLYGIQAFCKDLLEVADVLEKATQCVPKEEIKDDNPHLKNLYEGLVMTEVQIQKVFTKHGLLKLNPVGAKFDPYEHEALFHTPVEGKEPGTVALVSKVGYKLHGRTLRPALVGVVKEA
UniProt Q13416, sequence (Q13416 whole entry): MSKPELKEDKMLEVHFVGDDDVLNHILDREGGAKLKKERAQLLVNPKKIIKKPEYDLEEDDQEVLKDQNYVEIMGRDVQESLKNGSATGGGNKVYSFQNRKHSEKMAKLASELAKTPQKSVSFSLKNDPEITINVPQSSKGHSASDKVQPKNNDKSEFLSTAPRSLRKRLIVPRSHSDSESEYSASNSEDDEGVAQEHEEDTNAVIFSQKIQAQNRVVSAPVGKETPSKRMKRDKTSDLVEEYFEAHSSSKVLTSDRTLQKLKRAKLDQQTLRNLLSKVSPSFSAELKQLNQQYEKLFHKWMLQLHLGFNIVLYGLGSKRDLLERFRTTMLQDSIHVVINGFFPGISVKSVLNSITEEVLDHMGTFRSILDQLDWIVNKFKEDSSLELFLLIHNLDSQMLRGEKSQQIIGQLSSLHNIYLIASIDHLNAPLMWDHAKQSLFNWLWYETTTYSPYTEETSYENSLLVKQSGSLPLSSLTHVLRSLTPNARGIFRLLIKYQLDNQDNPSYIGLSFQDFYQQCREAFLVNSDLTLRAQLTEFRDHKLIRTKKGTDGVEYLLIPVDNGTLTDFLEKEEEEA
UniProt P04406, sequence (P04406 whole entry, looked up): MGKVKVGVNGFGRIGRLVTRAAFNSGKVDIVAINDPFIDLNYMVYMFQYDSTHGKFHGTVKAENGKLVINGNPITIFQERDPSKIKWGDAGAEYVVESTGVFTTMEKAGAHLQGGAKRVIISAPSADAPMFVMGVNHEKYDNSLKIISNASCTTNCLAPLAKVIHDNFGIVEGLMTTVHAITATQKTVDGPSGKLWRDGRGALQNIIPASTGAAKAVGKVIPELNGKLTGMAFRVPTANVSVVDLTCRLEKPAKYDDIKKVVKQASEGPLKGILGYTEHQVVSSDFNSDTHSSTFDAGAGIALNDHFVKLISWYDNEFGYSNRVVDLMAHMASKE
UniProt Q8WVK2, sequence (Q8WVK2 whole entry): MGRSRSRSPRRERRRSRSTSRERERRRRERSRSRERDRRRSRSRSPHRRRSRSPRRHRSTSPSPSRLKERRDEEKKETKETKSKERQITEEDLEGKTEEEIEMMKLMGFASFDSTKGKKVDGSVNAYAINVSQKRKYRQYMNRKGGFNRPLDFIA

| pEC50 | Target |
| --- | --- |
| < 2.7 | PEPD (effect direction: destabilized) (UniProt P12955) |
| 3.02 | CCT5 (effect direction: stabilized) (UniProt P48643) |
| 3.43 | UniProt Q9Y2K2 (effect direction: stabilized) |
| 3.26 | KATNAL1 (effect direction: stabilized) (UniProt Q9BW62) |
| 3.37 | MRPL30 (effect direction: destabilized) (UniProt Q8TCC3) |
| 3.01 | HEXB (effect direction: stabilized) (UniProt P07686) |
| 2.96 | UniProt P0C0S5 (effect direction: stabilized) |
| 3.22 | HSD17B7 (effect direction: stabilized) (UniProt P56937) |
| 4.17 | RPL28 (effect direction: destabilized) (UniProt P46779) |
| 3.13 | ILF3 (effect direction: stabilized) (UniProt Q12906) |
| < 2.7 | SNX2 (effect direction: stabilized) (UniProt O60749) |
| 3.47 | UniProt P60842 (effect direction: stabilized) |
| 2.97 | NRF1 (effect direction: stabilized) (UniProt Q16656) |
| 3.28 | GTF2I (effect direction: stabilized) (UniProt P78347) |
| 3.54 | UniProt P27361 (effect direction: stabilized) |
| 3.52 | PDCD5 (effect direction: destabilized) (UniProt O14737) |
| 3.17 | CAPN1 (effect direction: stabilized) (UniProt P07384) |

| pEC50 | Target |
| --- | --- |
| 3.8 | AFF4 (effect direction: stabilized) (UniProt Q9UHB7) |
| 3.22 | HEXA (effect direction: stabilized) (UniProt P06865) |
| < 2.7 | GAPDH (effect direction: stabilized) (UniProt P04406) |
| 3.46 | MRPL2 (effect direction: destabilized) (UniProt Q5T653) |
| 3.13 | PURA (effect direction: stabilized) (UniProt Q00577) |
| < 2.7 | UniProt Q16181 (effect direction: stabilized) |
| < 2.7 | UCHL5 (effect direction: stabilized) (UniProt Q9Y5K5) |
| 3.56 | LCLAT1 (effect direction: stabilized) (UniProt Q6UWP7) |
| 2.73 | UniProt Q00537 (effect direction: stabilized) |
| < 2.7 | PPP2CA (effect direction: destabilized) (UniProt P67775) |
| 3.14 | UniProt Q8N1G2 (effect direction: stabilized) |
| 3.67 | IPO9 (effect direction: destabilized) (UniProt Q96P70) |
| < 2.7 | GNAS (effect direction: stabilized) (UniProt P63092) |
| 3.76 | FOXK2 (effect direction: stabilized) (UniProt Q01167) |
| < 2.7 | DECR1 (effect direction: stabilized) (UniProt Q16698) |
| 2.77 | XPNPEP1 (effect direction: stabilized) (UniProt Q9NQW7) |

Continued, target first:

| Target | pEC50 |
| --- | --- |
| SRC (effect direction: stabilized) (UniProt P12931) | 3.37 |
| DNMT1 (effect direction: destabilized) (UniProt P26358) | 2.98 |
| ORC6 (effect direction: stabilized) (UniProt Q9Y5N6) | 3.73 |
| XRCC5 (effect direction: stabilized) (UniProt P13010) | < 2.7 |
| RAD51C (effect direction: stabilized) (UniProt O43502) | 3.46 |
| UniProt Q86U38 (effect direction: stabilized) | < 2.7 |
| UniProt Q9NYL2 (effect direction: stabilized) | 3.65 |
| FTSJ3 (effect direction: destabilized) (UniProt Q8IY81) | 3.22 |
| EPRS (effect direction: destabilized) (UniProt P07814) | 4.04 |
| UBA3 (effect direction: stabilized) (UniProt Q8TBC4) | 3.86 |
| UniProt Q12905 (effect direction: stabilized) | 2.84 |
| UniProt P78356 (effect direction: stabilized) | 2.83 |
| SLBP (effect direction: stabilized) (UniProt Q14493) | 3.47 |
| CNOT1 (effect direction: stabilized) (UniProt A5YKK6) | 3.41 |
| UniProt P35626 (effect direction: stabilized) | 3.31 |
| RPS3 (effect direction: destabilized) (UniProt P23396) | < 2.7 |
| FNTA (effect direction: stabilized) (UniProt P49354) | 3.22 |
| EEF1G (effect direction: stabilized) (UniProt P26641) | < 2.7 |
| DDX11L8 (effect direction: stabilized) (UniProt A8MPP1) | 3.15 |
| CMPK1 (effect direction: stabilized) (UniProt P30085) | 3.27 |

| Target | pEC50 |
| --- | --- |
| SNRNP27 (effect direction: stabilized) (UniProt Q8WVK2) | 3.64 |
| IDH3A (effect direction: stabilized) (UniProt P50213) | < 2.7 |
| SLC12A2 (effect direction: stabilized) (UniProt P55011) | 3.44 |
| GRPEL1 (effect direction: destabilized) (UniProt Q9HAV7) | 4.04 |
| CARS (effect direction: stabilized) (UniProt P49589) | 3.63 |
| RELA (effect direction: stabilized) (UniProt Q04206) | < 2.7 |
| JMJD6 (effect direction: stabilized) (UniProt Q6NYC1) | 3.21 |
| XPO1 (effect direction: stabilized) (UniProt O14980) | < 2.7 |
| CCDC86 (effect direction: stabilized) (UniProt Q9H6F5) | < 2.7 |
| UniProt Q15418 (effect direction: stabilized) | 3.77 |
| FARSB (effect direction: stabilized) (UniProt Q9NSD9) | 3.16 |
| FAHD2A (effect direction: destabilized) (UniProt Q96GK7) | < 2.7 |
| NEK9 (effect direction: stabilized) (UniProt Q8TD19) | 3.19 |
| SACM1L (effect direction: stabilized) (UniProt Q9NTJ5) | 3.14 |
| SPAST (effect direction: stabilized) (UniProt Q9UBP0) | 3.34 |
| PAPOLA (effect direction: stabilized) (UniProt P51003) | 2.95 |
| CLCN7 (effect direction: stabilized) (UniProt P51798) | 3.4 |
| EIF2B3 (effect direction: stabilized) (UniProt Q9NR50) | 3.82 |
| BCL7A (effect direction: destabilized) (UniProt Q4VC05) | 3.03 |
| UniProt Q14240 (effect direction: stabilized) | 3.54 |

| Target | pEC50 |
| --- | --- |
| EIF4G2 (effect direction: stabilized) (UniProt P78344) | < 2.7 |
| UniProt Q92600 (effect direction: stabilized) | 3.18 |
| DHCR24 (effect direction: stabilized) (UniProt Q15392) | 3.66 |
| NAP1L1 (effect direction: stabilized) (UniProt P55209) | < 2.7 |
| PSMD6 (effect direction: stabilized) (UniProt Q15008) | 4.15 |
| SPATA5 (effect direction: stabilized) (UniProt Q8NB90) | 2.96 |
| UniProt Q9NZM5 (effect direction: destabilized) | 2.72 |
| MRPS22 (effect direction: destabilized) (UniProt P82650) | 4.46 |
| UniProt Q13416 (effect direction: stabilized) | 3.4 |
| GRSF1 (effect direction: stabilized) (UniProt Q12849) | 2.83 |
| FN3KRP (effect direction: stabilized) (UniProt Q9HA64) | 4.17 |
| ANP32A (effect direction: stabilized) (UniProt P39687) | < 2.7 |
| UniProt O43314 (effect direction: stabilized) | 4.16 |
| NAPA (effect direction: destabilized) (UniProt P54920) | 4.56 |
| UniProt Q7L9L4 (effect direction: stabilized) | 2.98 |
| PSMD12 (effect direction: stabilized) (UniProt O00232) | 4.29 |
| DDB2 (effect direction: stabilized) (UniProt Q92466) | 3.2 |
| GPKOW (effect direction: stabilized) (UniProt Q92917) | 3.19 |
| UniProt Q86V81 (effect direction: destabilized) | 3.07 |
| AARS (effect direction: stabilized) (UniProt P49588) | 4.2 |
